Experimental findings from ChEMBL document CHEMBL3393019, “Synthesis and evaluation of NS5A inhibitors containing diverse heteroaromatic cores” (Bioorg Med Chem Lett, 2015) are described below.

The structures appear in SMILES notation.

Data set [1] can be described thus: Cytotoxicity against human Huh7ET cells by [3H]thymidine incorporation assay. The format is cell-based, Huh-7. For orientation: Dividing cells build labelled thymidine or BrdU into new DNA.
In data set [2] the test system is Hepatitis C virus. Nature of the data set: Antiviral activity against Hepatitis C virus genotype 1b infected in human Huh-5.2 cells assessed as decrease in HCV replicon RNA replication after 4 days by luciferase assay. The format is functional, cell-based, Hepacivirus hominis. The settings on record: Huh-5-2, 96 h.
The subject of data set [3] is Hepatitis C virus. As to the kind of experiment: Antiviral activity against Hepatitis C virus genotype 1a infected in W11.8 cells assessed as decrease in NS5A expression in replicon cell after 4 days by luminescence based ELISA. The format is functional, Hepacivirus hominis. The settings on record: subtype 1a, W11.8, 96 h. (In antiviral work, replicon cells carry a viral genome segment that copies itself.)

Data set [4] is described as follows: Half life in po dosed rat. It is filed as ADME, organism-based. As to conditions: in vivo.
A short description of data set [5]: Half life in iv dosed rat. As to conditions: in vivo. It is filed as ADME, organism-based.
A short description of data set [6]: Cmax in po dosed rat. As to conditions: in vivo. Details: route oral. It is filed as ADME, organism-based.
Data set [7] can be described thus: AUC (0 to 8 hrs) in po dosed rat. The format is ADME, organism-based. Set-up: time < 8 hr, route oral. As to conditions: plasma.
Data set [8] in a line: Volume of distribution at steady state in iv dosed rat. As to conditions: in vivo, read-out: Vdss. The format is ADME, organism-based.
Data set [9] is described as follows: Clearance in iv dosed rat. It is filed as ADME, organism-based. As to conditions: in vivo.
The nature of data set [10]: Oral bioavailability in rat. The settings on record: in vivo. It is filed as ADME, organism-based.

With `COC(=O)N[C@H](C(=O)N1C[C@@H](C)C[C@H]1c1nc2cc(-c3ccc(-c4ccc5oc([C@@H]6C[C@H](C)CN6C(=O)[C@@H](NC(=O)OC)C(C)C)nc5c4)cc3)ccc2o1)C(C)C`, in [1], the CC50 – broadly, the concentration giving 50% cytotoxicity – is 7000 nM. Also, the EC50 (as a rule, the concentration giving half of the maximal effect) was 223 nM in the data set on Hepatitis C virus [2] and > 2000 nM in the data set with Hepatitis C virus [3].

With `COC(=O)N[C@H](C(=O)N1C[C@@H](C)C[C@H]1c1nc2cc(-c3ccc(-c4ccc5oc([C@@H]6C[C@H](C)CN6C(=O)[C@@H](NC(=O)OC)C(C)C)nc5c4)cc3)ccc2[nH]1)C(C)C`, in data set [1], the CC50 is > 20000 nM. Moreover, the EC50 in the data set with Hepatitis C virus [2] turned out to be 0.017 nM; in the data set with Hepatitis C virus [3], 58 nM.

Regarding `COC(=O)N[C@H](C(=O)N1C[C@@H](C)C[C@H]1c1nc2cc(-c3cc4sc(-c5ccc6oc([C@@H]7C[C@H](C)CN7C(=O)[C@@H](NC(=O)OC)C(C)C)nc6c5)cc4s3)ccc2o1)C(C)C`, in [1], the CC50 is > 20000 nM. Besides, the EC50 in the data set with Hepatitis C virus [2] was 23 nM; in the data set on Hepatitis C virus [3], > 2000 nM.

For the compound `COC(=O)N[C@H](C(=O)N1C[C@@H](C)C[C@H]1c1nc2cc(-c3cc4sc(-c5ccc6oc([C@@H]7C[C@H](C)CN7C(=O)[C@@H](NC(=O)OC)C(C)C)nc6c5)cc4s3)ccc2[nH]1)C(C)C`, the CC50 in [1] was > 20000 nM. Further, the EC50 in the data set on Hepatitis C virus [2] came out at 0.003 nM; in the data set on Hepatitis C virus [3], 0.032 nM.

`COC(=O)N[C@H](C(=O)N1C[C@@H](C)C[C@H]1c1nc(-c2ccc(-c3ccc(-c4ccc5oc([C@@H]6C[C@H](C)CN6C(=O)[C@@H](NC(=O)OC)C(C)C)nc5c4)cc3)cc2)c[nH]1)C(C)C`: the CC50 in data set [1] was > 20000 nM. The EC50 in the data set on Hepatitis C virus [2] came out at 0.023 nM; in the data set on Hepatitis C virus [3] it was 11 nM.

In data set [1], `COC(=O)N[C@H](C(=O)N1C[C@@H](C)C[C@H]1c1nc2ccc(-c3ccc(-c4ccc5nc([C@@H]6C[C@H](C)CN6C(=O)[C@@H](NC(=O)OC)C(C)C)oc5c4)cc3)cc2o1)C(C)C` registered a CC50 of 7000 nM. The EC50 in the data set on Hepatitis C virus [2] came out at 0.006 nM; in the data set on Hepatitis C virus [3] it was 630 nM.

Consider `COC(=O)N[C@H](C(=O)N1C[C@@H](C)C[C@H]1c1nc2cc(-c3ccc(-c4ccc5nc([C@@H]6C[C@H](C)CN6C(=O)[C@@H](NC(=O)OC)C(C)C)oc5c4)cc3)ccc2[nH]1)C(C)C`, for which, in data set [1], the CC50 was > 20000 nM. The EC50 came out at 0.008 nM in the data set with Hepatitis C virus [2] and 1.8 nM with Hepatitis C virus [3].

For the compound `COC(=O)N[C@H](C(=O)N1C[C@@H](C)C[C@H]1c1nc2ccc(-c3cc4sc(-c5ccc6nc([C@@H]7C[C@H](C)CN7C(=O)[C@@H](NC(=O)OC)C(C)C)oc6c5)cc4s3)cc2o1)C(C)C`, the CC50 in data set [1] is > 20000 nM. In addition, the EC50 stood at 0.019 nM in the data set with Hepatitis C virus [2] and 43 nM in the data set on Hepatitis C virus [3].

With `COC(=O)N[C@H](C(=O)N1C[C@@H](C)C[C@H]1c1nc2cc(-c3cc4sc(-c5ccc6nc([C@@H]7C[C@H](C)CN7C(=O)[C@@H](NC(=O)OC)C(C)C)oc6c5)cc4s3)ccc2[nH]1)C(C)C`, the half-life – broadly, the time in which the quantity being followed falls by half – is 14.8 h in data set [4] and 5.6 h in data set [5]. The highest level in [6] (Cmax) was 0.01 ng/mL. In addition, in data set [7], the AUC(0-t) (as a rule, exposure summed from dosing to a finite time, without extrapolation to infinity) at 8 h was determined as 376 ng·h/mL. For the same compound, the Vd in data set [8] is 2.8 L/kg. For the same compound, the CC50 in data set [1] is > 20000 nM. The clearance (in general, the volume of plasma or blood freed of the substance per unit of time) in data set [9] was determined as 6.2 mL/min/kg. Moreover, the EC50 with Hepatitis C virus [2] was 0.004 nM; in the data set on Hepatitis C virus [3], 0.029 nM. For the same compound, the bioavailability (usually dose-corrected exposure relative to a reference, in per cent) in data set [10] is 7.3%.

As to `COC(=O)N[C@H](C(=O)N1C[C@@H](C)C[C@H]1c1nc(-c2ccc(-c3ccc(-c4ccc5nc([C@@H]6C[C@H](C)CN6C(=O)[C@@H](NC(=O)OC)C(C)C)oc5c4)cc3)cc2)c[nH]1)C(C)C`, in data set [1], the CC50 was > 20000 nM. Also, the figures for the EC50 in the data set with Hepatitis C virus [2] and with Hepatitis C virus [3] were 0.005 nM and 0.164 nM, respectively.

As for `COC(=O)N[C@H](C(=O)N1C[C@@H](C)C[C@H]1c1ncc(-c2cc3sc(-c4ccc5[nH]c([C@@H]6C[C@H](C)CN6C(=O)[C@@H](NC(=O)OC)C(C)C)nc5c4)cc3s2)[nH]1)C(C)C`, the CC50 in data set [1] was > 20000 nM. In addition, the EC50 in the data set with Hepatitis C virus [2] amounted to 0.016 nM; in the data set on Hepatitis C virus [3], 0.021 nM.

With `COC(=O)N[C@H](C(=O)N1C[C@@H](C)C[C@H]1c1ncc(-c2ccc(-c3cc4sc(-c5ccc6[nH]c([C@@H]7C[C@H](C)CN7C(=O)[C@@H](NC(=O)OC)C(C)C)nc6c5)cc4s3)cc2)[nH]1)C(C)C`, the half-life was 17.2 h in [4] and 3.5 h in data set [5]. The peak level in [6] (Cmax) was 0.01 ng/mL. In [7], this compound gave an exposure AUC(0-t) at 8 h of 281 ng·h/mL. In addition, the Vd in [8] is 1.6 L/kg. In addition, the CC50 in data set [1] was > 20000 nM. In addition, the clearance in data set [9] was determined as 8.1 mL/min/kg. The values for the EC50 in the data set on Hepatitis C virus [2] and in the data set on Hepatitis C virus [3] were 0.006 nM and 0.008 nM, respectively. This compound also yielded a bioavailability in data set [10] of 8.4%.

As for `COC(=O)N[C@H](C(=O)N1C[C@@H](C)C[C@H]1c1nc2cc(-c3cc4sc(-c5ccc6nc([C@@H]7C[C@H](C)CN7C(=O)[C@@H](NC(=O)OC)C(C)C)[nH]c6c5)cc4s3)ccc2[nH]1)C(C)C`, the CC50 in [1] is > 20000 nM. In addition, the figures for the EC50 in the data set with Hepatitis C virus [2] and in the data set on Hepatitis C virus [3] were 0.009 nM and 0.004 nM, respectively.

For the compound `COC(=O)N[C@H](C(=O)N1C[C@@H](C)C[C@H]1c1nc2cc(-c3cc4sc(-c5ccc6nc([C@@H]7C[C@H](C)CN7C(=O)[C@@H](NC(=O)OC)C(C)C)n(C)c6c5)cc4s3)ccc2[nH]1)C(C)C`, the CC50 in [1] is > 20000 nM. Further, the figures for the EC50 with Hepatitis C virus [2] and in the data set with Hepatitis C virus [3] were 0.004 nM and 0.024 nM, respectively.

With `COC(=O)N[C@H](C(=O)N1C[C@@H](C)C[C@H]1c1nc2cc(-c3cc4sc(-c5cc6nc([C@@H]7C[C@H](C)CN7C(=O)[C@@H](NC(=O)OC)C(C)C)[nH]c6s5)cc4s3)ccc2[nH]1)C(C)C`, in data set [1], the CC50 was > 20000 nM. Besides, the EC50 in the data set on Hepatitis C virus [2] turned out to be 0.004 nM; in the data set with Hepatitis C virus [3], 0.011 nM.

Take `COC(=O)N[C@H](C(=O)N1C[C@@H](C)C[C@H]1c1cc2cc(-c3cc4sc(-c5ccc6[nH]c([C@@H]7C[C@H](C)CN7C(=O)[C@@H](NC(=O)OC)C(C)C)nc6c5)cc4s3)ccc2[nH]1)C(C)C`: the CC50 in data set [1] was > 20000 nM. Further, the EC50 with Hepatitis C virus [2] stood at 0.006 nM; in the data set on Hepatitis C virus [3], 1.3 nM.

Turning to `COC(=O)N[C@H](C(=O)N1C[C@@H](C)C[C@H]1c1cc2ccc(-c3cc4sc(-c5ccc6[nH]c([C@@H]7C[C@H](C)CN7C(=O)[C@@H](NC(=O)OC)C(C)C)nc6c5)cc4s3)cc2[nH]1)C(C)C`, the figures for the half-life in data set [4] and in data set [5] were 16.6 h and 4.6 h, respectively. Further, the Cmax – broadly, the maximum level reached in the sampled fluid or tissue – in data set [6] turned out to be 0.02 ng/mL. Moreover, the AUC(0-t) at 8 h in data set [7] worked out at 659 ng·h/mL. Also, the Vd in data set [8] was found to be 1.6 L/kg. For the same compound, the CC50 in [1] is > 20000 nM. The compound also showed a clearance in data set [9] of 4.7 mL/min/kg. Moreover, the results for the EC50 in the data set with Hepatitis C virus [2] and in the data set with Hepatitis C virus [3] were 0.006 nM and 0.02 nM, respectively. The bioavailability in data set [10] amounted to 8.4%.

For `COC(=O)N[C@H](C(=O)N1C[C@@H](C)C[C@H]1c1nc2cc(-c3cc4sc(-c5ccc6sc([C@@H]7C[C@H](C)CN7C(=O)[C@@H](NC(=O)OC)C(C)C)nc6c5)cc4s3)ccc2[nH]1)C(C)C`, the CC50 in data set [1] is > 20000 nM. For the same compound, the EC50 with Hepatitis C virus [2] came out at 0.025 nM; in the data set on Hepatitis C virus [3] it was 6.8 nM.

Turning to `COC(=O)N[C@H](C(=O)N1C[C@@H](C)C[C@H]1c1cn2cc(-c3cc4sc(-c5ccc6[nH]c([C@@H]7C[C@H](C)CN7C(=O)[C@@H](NC(=O)OC)C(C)C)nc6c5)cc4s3)ccc2n1)C(C)C`, the CC50 in data set [1] turned out to be 8000 nM. In addition, the EC50 worked out at 0.004 nM in the data set on Hepatitis C virus [2] and 0.006 nM in the data set with Hepatitis C virus [3].
